In US20210045385A1, “PYRIDAZINONE-SUBSTITUTED KETOXIMES AS HERBICIDES” (FMC Corporation, priority 2018, published 2021):

Tests used:
Format in all cases: in vivo
[1] = system: Italian ryegrass (Lolium multiflorum); test: Test A preemergence, visual plant response rating; conditions: for Ryegrass, Italian plant response rating (0 to 100 scale): approx. 10 days
Outline: (§1)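 Ratings use a 0–100 visual scale (100 = complete control) against untreated controls, scored about 10 days after greenhouse treatment. Test chemicals were formulated in surfactant-containing non-phytotoxic solvent and applied either as soil spray after planting (preemergence) or onto one- to two-leaf, 2–10 cm plants (postemergence).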

[2] = system: barnyardgrass (Echinochloa crus-galli); test: Test A preemergence, visual plant response rating; conditions: for Barnyardgrass plant response rating (0 to 100 scale): approx. 10 days
Outline: as §1

[3] = system: foxtail, green (green foxtail, Setaria viridis); test: Test A preemergence, visual plant response rating; conditions: for Foxtail, Green plant response rating (0 to 100 scale): approx. 10 days
Outline: as §1

kochia (Kochia scoparia) [4] = test: Test A preemergence, visual plant response rating; conditions: for Kochia plant response rating (0 to 100 scale): approx. 10 days
Outline: as §1

[5] = system: pigweed (Amaranthus retroflexus); test: Test A preemergence, visual plant response rating; conditions: for Pigweed plant response rating (0 to 100 scale): approx. 10 days
Outline: as §1

[6] = system: ragweed (common ragweed, Ambrosia elatior); test: Test A preemergence, visual plant response rating; conditions: for Ragweed plant response rating (0 to 100 scale): approx. 10 days
Outline: as §1

[7] = system: Italian ryegrass (Lolium multiflorum); test: Test A postemergence, visual plant response rating; conditions: for Ryegrass, Italian plant response rating (0 to 100 scale): 500 g ai/ha, postemergence, 0 is no effect, 100 is complete control; for Ryegrass, Italian plant response rating: Postemergence, 125 g ai/ha, 0 to 100 scale (0 no effect, 100 complete control)
Outline: as §1

[8] = system: barnyardgrass (Echinochloa crus-galli); test: Test A postemergence, visual plant response rating; conditions: for Barnyardgrass plant response rating (0 to 100 scale): 500 g ai/ha, postemergence, 0 is no effect, 100 is complete control; for Barnyardgrass plant response rating: Postemergence, 125 g ai/ha, 0 to 100 scale (0 no effect, 100 complete control)
Outline: as §1

[9] = system: blackgrass (Alopecurus myosuroides); test: Test A postemergence, visual plant response rating; conditions: for Blackgrass plant response rating (0 to 100 scale): 500 g ai/ha, postemergence, 0 is no effect, 100 is complete control; for Blackgrass plant response rating: Postemergence, 125 g ai/ha, 0 to 100 scale (0 no effect, 100 complete control)
Outline: as §1

corn (Zea mays) = test: Test A postemergence, visual plant response rating; conditions: for Corn plant response rating (0 to 100 scale): 500 g ai/ha, postemergence, 0 is no effect, 100 is complete control; for Corn plant response rating: Postemergence, 125 g ai/ha, 0 to 100 scale (0 no effect, 100 complete control)
Outline: as §1

[10] = system: foxtail, green (green foxtail, Setaria viridis); test: Test A postemergence, visual plant response rating; conditions: for Foxtail, Green plant response rating (0 to 100 scale): 500 g ai/ha, postemergence, 0 is no effect, 100 is complete control; for Foxtail, Green plant response rating: Postemergence, 125 g ai/ha, 0 to 100 scale (0 no effect, 100 complete control)
Outline: as §1

[11] = system: galium (catchweed bedstraw, Galium aparine); test: Test A postemergence, visual plant response rating; conditions: for Galium plant response rating (0 to 100 scale): 500 g ai/ha, postemergence, 0 is no effect, 100 is complete control; for Galium plant response rating: Postemergence, 125 g ai/ha, 0 to 100 scale (0 no effect, 100 complete control)
Outline: as §1

kochia (Kochia scoparia) [12] = test: Test A postemergence, visual plant response rating; conditions: for Kochia plant response rating (0 to 100 scale): 500 g ai/ha, postemergence, 0 is no effect, 100 is complete control; for Kochia plant response rating: Postemergence, 125 g ai/ha, 0 to 100 scale (0 no effect, 100 complete control)
Outline: as §1

[13] = system: pigweed (Amaranthus retroflexus); test: Test A postemergence, visual plant response rating; conditions: for Pigweed plant response rating (0 to 100 scale): 500 g ai/ha, postemergence, 0 is no effect, 100 is complete control; for Pigweed plant response rating: Postemergence, 125 g ai/ha, 0 to 100 scale (0 no effect, 100 complete control)
Outline: as §1

[14] = system: ragweed (common ragweed, Ambrosia elatior); test: Test A postemergence, visual plant response rating; conditions: for Ragweed plant response rating (0 to 100 scale): 500 g ai/ha, postemergence, 0 is no effect, 100 is complete control; for Ragweed plant response rating: Postemergence, 125 g ai/ha, 0 to 100 scale (0 no effect, 100 complete control)
Outline: as §1

[15] = system: wheat (Triticum aestivum); test: Test A postemergence, visual plant response rating; conditions: for Wheat plant response rating (0 to 100 scale): 500 g ai/ha, postemergence, 0 is no effect, 100 is complete control; for Wheat plant response rating: Postemergence, 125 g ai/ha, 0 to 100 scale (0 no effect, 100 complete control)
Outline: as §1

[16] = system: barnyardgrass (Echinochloa crus-galli); test: Test B flooded paddy test, visual plant response rating; conditions: 250 g ai/ha, Flood, applied to paddy water, 2-leaf stage, evaluated after 13 to 15 days
Outline: (§2)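 Greenhouse paddy conditions applied: two-leaf plants, a 3 cm flood above the soil surface maintained throughout, and compound added to the water rather than the foliage. Plants were judged visually against controls at 13 to 15 days.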

[17] = system: ducksalad (Heteranhera limosa); test: as above; conditions: 250 g ai/ha, Flood, applied to paddy water, 2-leaf stage, evaluated after 13 to 15 days
Outline: as §2

rice (Oryza sativa) = test: as above; conditions: 250 g ai/ha, Flood, applied to paddy water, 2-leaf stage, evaluated after 13 to 15 days
Outline: as §2

[18] = system: sedge, umbrella (small-flower umbrella sedge, Cyperus difformis); test: as above; conditions: 250 g ai/ha, Flood, applied to paddy water, 2-leaf stage, evaluated after 13 to 15 days
Outline: as §2

[19] = 125 g ai/ha, preemergence, 0 to 100 scale, 0 no effect, 100 complete control

SMILES	Ryegrass, Italian plant response rating (0 to 100 scale) ([1]; 500 g ai/ha Preemergence)	Barnyardgrass plant response rating (0 to 100 scale) ([2]; 500 g ai/ha Preemergence)	Foxtail, Green plant response rating (0 to 100 scale) ([3]; 500 g ai/ha Preemergence)	Kochia plant response rating (0 to 100 scale) (kochia (Kochia scoparia) [4]; 500 g ai/ha Preemergence)	Pigweed plant response rating (0 to 100 scale) ([5]; 500 g ai/ha Preemergence)	Ragweed plant response rating (0 to 100 scale) ([6]; 500 g ai/ha Preemergence)	Ryegrass, Italian plant response rating (0 to 100 scale) [7]	Ryegrass, Italian plant response rating [7]	Barnyardgrass plant response rating (0 to 100 scale) [8]	Barnyardgrass plant response rating [8]	Blackgrass plant response rating (0 to 100 scale) [9]	Blackgrass plant response rating [9]	Corn plant response rating (0 to 100 scale) (corn (Zea mays))	Corn plant response rating (corn (Zea mays))	Foxtail, Green plant response rating (0 to 100 scale) [10]	Foxtail, Green plant response rating [10]	Galium plant response rating (0 to 100 scale) [11]	Galium plant response rating [11]	Kochia plant response rating (0 to 100 scale) (kochia (Kochia scoparia) [12])	Kochia plant response rating (kochia (Kochia scoparia) [12])	further results
CO/N=C(\c1cccc(C)c1C)c1c(O)c(C)nn(C)c1=O [Compound 22]	30	0	0	10	90	90	30	10	10	0	40	10	0	0	0	0	60	60	30	20	Ryegrass, Italian plant response rating (0 to 100 scale) ([1]; 125 g ai/ha Preemergence): 10; Barnyardgrass plant response rating (0 to 100 scale) ([2]; 125 g ai/ha Preemergence): 0; Foxtail, Green plant response rating (0 to 100 scale) ([3]; 125 g ai/ha Preemergence): 0; Kochia plant response rating (0 to 100 scale) (kochia (Kochia scoparia) [4]; 125 g ai/ha Preemergence): 10; Pigweed plant response rating (0 to 100 scale) ([5]; 125 g ai/ha Preemergence): 30; Ragweed plant response rating (0 to 100 scale) ([6]; 125 g ai/ha Preemergence): 50; Pigweed plant response rating (0 to 100 scale) [13]: 50; Pigweed plant response rating [13]: 30; Ragweed plant response rating (0 to 100 scale) [14]: 50; Ragweed plant response rating [14]: 40; Wheat plant response rating (0 to 100 scale) [15]: 0; Wheat plant response rating [15]: 0; Plant response rating, Barnyardgrass (0 to 100 scale, 0 is no effect, 100 is complete control) [16]: 0; Plant response rating, Ducksalad (0 to 100 scale, 0 is no effect, 100 is complete control) [17]: 0; Plant response rating, Rice (0 to 100 scale, 0 is no effect, 100 is complete control) (rice (Oryza sativa)): 0; Plant response rating, Sedge, Umbrella (0 to 100 scale, 0 is no effect, 100 is complete control) [18]: 0
CON=C(c1cccc(C)c1)c1c(O)c(Cl)nn(C)c1=O [Compound 128]	20	30	10	80	80	80	10	0	30	10	10	0	0	0	30	20	90	70	70	50	Ryegrass, Italian plant response rating [1, 19]: 0; Barnyardgrass plant response rating [2, 19]: 0; Foxtail, Green plant response rating [3, 19]: 0; Kochia plant response rating (kochia (Kochia scoparia) [4]; [19]): 30; Pigweed plant response rating [5, 19]: 100; Ragweed plant response rating [6, 19]: 60; Pigweed plant response rating (0 to 100 scale) [13]: 60; Pigweed plant response rating [13]: 30; Ragweed plant response rating (0 to 100 scale) [14]: 80; Ragweed plant response rating [14]: 50; Wheat plant response rating (0 to 100 scale) [15]: 10; Wheat plant response rating [15]: 0; Plant response rating, Barnyardgrass (0 to 100 scale, 0 is no effect, 100 is complete control) [16]: 0; Plant response rating, Ducksalad (0 to 100 scale, 0 is no effect, 100 is complete control) [17]: 40; Plant response rating, Rice (0 to 100 scale, 0 is no effect, 100 is complete control) (rice (Oryza sativa)): 30; Plant response rating, Sedge, Umbrella (0 to 100 scale, 0 is no effect, 100 is complete control) [18]: 0
CCO/N=C(\c1cccc(Cl)c1)c1c(O)c(C)nn(C)c1=O [Compound 8]	50	20	30	60	90	100	60	30	10	0	20	0	0	0	20	10	90	80	70	10	Ryegrass, Italian plant response rating (0 to 100 scale) ([1]; 125 g ai/ha Preemergence): 50; Barnyardgrass plant response rating (0 to 100 scale) ([2]; 125 g ai/ha Preemergence): 0; Foxtail, Green plant response rating (0 to 100 scale) ([3]; 125 g ai/ha Preemergence): 10; Kochia plant response rating (0 to 100 scale) (kochia (Kochia scoparia) [4]; 125 g ai/ha Preemergence): 10; Pigweed plant response rating (0 to 100 scale) ([5]; 125 g ai/ha Preemergence): 30; Ragweed plant response rating (0 to 100 scale) ([6]; 125 g ai/ha Preemergence): 0; Pigweed plant response rating (0 to 100 scale) [13]: 20; Pigweed plant response rating [13]: 0; Ragweed plant response rating (0 to 100 scale) [14]: 80; Ragweed plant response rating [14]: 20; Wheat plant response rating (0 to 100 scale) [15]: 0; Wheat plant response rating [15]: 0; Plant response rating, Barnyardgrass (0 to 100 scale, 0 is no effect, 100 is complete control) [16]: 0; Plant response rating, Ducksalad (0 to 100 scale, 0 is no effect, 100 is complete control) [17]: 0; Plant response rating, Rice (0 to 100 scale, 0 is no effect, 100 is complete control) (rice (Oryza sativa)): 0; Plant response rating, Sedge, Umbrella (0 to 100 scale, 0 is no effect, 100 is complete control) [18]: 0
